One assay concerns the target T1, Calcineurin (Bos taurus, UniProt P48452).
T1 construct: Calcineurin was prepared from bovine brain; from tissue; host or cells: bovine brain
Description: Calcineurin phosphatase assay (pNPP). Type of assay: biochemical, bovine. Particulars: for inhibition at 0.5 µg/mL / inhibition at 5 µg/mL: 1 h, read-out: CaN, I; for inhibition at 0.5 µg/mL: at 0.5 μg/ml; for inhibition at 5 µg/mL: at 5 μg/ml; for IC50: pure compound, read-out: CaN, IC50 (converted).

The target in a further assay is T2, CPP32 (Homo sapiens, UniProt P42574).
T2 construct: purchased BASF, Worcester, Mass
T2 sequence (P42574 29-175 limits assumed): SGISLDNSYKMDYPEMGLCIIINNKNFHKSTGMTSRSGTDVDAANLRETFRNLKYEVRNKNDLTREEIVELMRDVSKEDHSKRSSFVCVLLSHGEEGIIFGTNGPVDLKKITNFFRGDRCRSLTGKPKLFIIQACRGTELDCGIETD
T2 sequence (P42574 176-277 limits assumed): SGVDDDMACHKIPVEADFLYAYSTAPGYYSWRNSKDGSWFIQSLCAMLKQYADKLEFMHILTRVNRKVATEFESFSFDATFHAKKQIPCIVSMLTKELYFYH
Description: CPP32 enzyme assay. Format: biochemical. The procedure: (§1) Each of the following assays were performed using either a Tecan 8051 or a Tecan Megaflex automated liquid handling system. Extracts of marine organisms were tested at 5 μg/ml for all assays except DPP IV and LAR which were tested at 50 μg/ml. The inhibition of enzyme activity found in the presence of extract was compared to that of an uninhibited control. Extracts which inhibited the enzyme>50% were retested in triplicate to confirm activity.
Test samples were aliquoted into 96 well microtiter plates and allowed to air dry. The stock CPP32 enzyme (BASF, Worcester, Mass.) was diluted by adding 10 μl of the enzyme to 17 ml of reaction buffer (50 mM Hepes pH 7.5; 10% glyccrol; 5 mM Dithiothreitol; 0.5 mM EDTA). A volume of 180 μl of the diluted enzyme was added to wells containing the dried test samples, or to empty wells (control). The contents of the microtiter wells were mixed by shaking on a plate shaker. Plates were incubated at 30° C. for 5 minutes. […] Controls for each plate consisted of an inhibitor control (50 nM DEVD-CHO final concentration); positive control (enzyme and substrate) and negative control (reaction buffer substrate). The plates were covered with aluminum foil and mixed using a plate shaker for 5 min. then incubated at 30° C. for 30 minutes. Plates were read using a plate reader with absorbance measured at 405 nm. Data was expressed as percent inhibition by comparing the absorbance values of test samples with those of the positive control (no sample).

Assay [1] deals with EL-4.IL-2 murine lymphoma cells. The experiment in a line: EL-4 adherence testing. Format: cell-based. An excerpt:
This assay is based on the properties of extracts/pure compounds which serve as protein kinase C (PKC) active agents to either induce or inhibit the adherence of EL-4.IL-2 murine lymphoma cells to plastic surfaces. The general methodology of this assay is described in detail in the following: Longley, R. E. and D. Harmody (1991) J. Antibiotics 44:93-102.

Another assay concerns P388 murine leukemia. The experiment in a line: P388 in vitro anti-tumor testing (MTT). Format: cell-based. To be noted: Mus musculus, 48-hr exposure. The procedure:
(§2) P388 cells can be obtained from the National Cancer Institute, Bethesda, Md., and A549 cells can be obtained from American Type Culture Collection, Rockville, Md. All cell lines are maintained in Roswell Park Memorial Institute (RPMI) medium 1640 supplemented with 10% bovine calf serum. All cell lines are cultured in plastic tissue culture flasks and kept in an incubator at 37° C. in humidified air containing 5% CO2. Prior to testing, antibiotic-free stock cultures of each of the cell lines are subcultured to 10^6 cells/ml by dilution in fresh growth medium at 2 to 3 day intervals.
To assess the antiproliferative effects of agents against the P388 cell line, 200 μl cultures (96 well tissue culture plates, Nunc, Denmark) are established at 1×10^5 cells/ml in drug-free medium or medium containing the test agent at 10.0, 1.0, 0.10 and 0.010 μg/ml. The solvent for all dilutions is ethanol. All experimental cultures are initiated in medium containing Gentamycin sulfate (50 μg/ml; Schering Corporation, Kenilworth, N.J.). After 48-hr exposure, P388 cells are enumerated using 3-[4,5-Dimethylthiazol-2-yl]-2,5-diphenyltetrazolium bromide (MTT) as described below.
(§3) To quantitate the effects on cell proliferation and resulting IC50 values, 75 μl of warm growth media containing 5 mg/ml MTT is added to each well, cultures are returned to the incubator, and left undisturbed for 90 minutes. […]

The next assay addresses T3, ICE (Homo sapiens, UniProt P29466).
T3 construct: purchased BASF, Worcester, Mass
T3 sequence (P29466 120-297 limits assumed): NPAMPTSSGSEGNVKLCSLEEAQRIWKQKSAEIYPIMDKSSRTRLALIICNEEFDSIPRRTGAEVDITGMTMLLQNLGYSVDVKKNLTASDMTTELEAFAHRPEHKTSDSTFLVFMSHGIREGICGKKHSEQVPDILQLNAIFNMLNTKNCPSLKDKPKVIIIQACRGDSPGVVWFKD
T3 sequence (P29466 317-404 limits assumed): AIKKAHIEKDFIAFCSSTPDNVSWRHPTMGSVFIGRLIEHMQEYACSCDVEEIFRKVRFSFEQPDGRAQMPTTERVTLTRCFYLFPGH
Description: ICE enzyme assay. Format: biochemical. The procedure: as §1
Test samples were aliquoted into 96 well microtiter plates and allowed to air dry. Stock ICE enzyme (supplied by BASF, Worcester, Mass.) was diluted in reaction buffer (50 mM Hepes pH 7.5, 10% glycerol, 5 mM dithiothreitol,0.5 mM EDTA and 5 mM β-mercaptoethanol) to a concentration that yielded a minimum increase of 0.1 optical density units after 30 minutes of reaction time. Diluted ICE enzyme was incubated at room temperature for 5 minutes prior to aliquoting 180 μl into each sample well. The plates were incubated at 30° C. for 5 minutes following a brief mixing of the well contents by shaking on a plate shaker. A volume of 20 μl of the enzyme substrate (Ac-YVAD-pNA) was added to each well resulting in a final concentration of 50 μM. […] Plates were read on a plate reader with absorbance measured at 405 nm. Data was expressed as percent inhibition by comparing the absorbance values of test samples with those of the positive control (no sample).

Another assay relates to unstimulated lymphocytes. Description: Lymphocyte viability (LCV) testing. Format: cell-based. An excerpt:
(§4) These assays measure the ability of the extracts/pure compounds to inhibit allogeneic immune responsiveness (MLR) and to affect the viability of unstimulated lymphocytes. These general methods are described in the following: Longley, R. E., D. Caddigan, D. Harmody, M. Gunasekera and S. P. Gunasekera (1991) Transplantation 52: 650-656.

In assay [2] the test system is A549 human lung adenocarcinoma. The experiment in a line: A549 in vitro anti-tumor testing (MTT). Format: cell-based. The procedure:
as §2
Similar procedures are utilized for A549 cells which require an additional 48 hr exposure prior to MTT addition. Results are expressed as percent inhibition compared to the negative (no drug) control. Positive drug controls are included to monitor drug sensitivity of each of the cell lines. These include varying dilutions of 5-fluorouracil, adriamycin, methotrexate and vinblastine.
as §3

Assay [3] deals with allogeneic immune responsiveness (MLR). The experiment in a line: Two-way mixed lymphocyte reaction (MLR). Type of assay: cell-based.
Excerpt: as §4

The next assay deals with T4, Aminopeptidase N (CD13) (Homo sapiens, UniProt P15144).
T4 construct: The source of Aminopeptidase N was the KG-1 cell line; endogenous in cells; host or cells: KG-1 cell lysate
Description: Aminopeptidase N (CD13) ELISA capture enzyme assay. Type of assay: biochemical. To be noted: 18 h; at 5 μg/ml; read-out: ApN, I. The protocol:
as §1
Aminopeptidase N was assayed using an Enzyme-Linked Immunosorbant (ELISA) capture assay. Briefly, 96-well plates were coated with goat anti-mouse immunoglobulins (Sigma #M4169). Following an overnight incubation the plates were washed three times with PBS-0.1% Triton X-100. The secondary (capture) antibody was then added to the plate (100 μl/well, 3.7 μg/ml; antihuman MY7, Coulter Corporation) and incubated for 3 hours at room temperature. Plates were washed three times with PBS-0.1% Triton X-100. The source of Aminopeptidase N was the KG-1 cell line, 100 μl of an appropriate dilution of the KG-1 cell lysate was added to each well, incubated for 3 hours and then washed a final time. The enzyme assay was performed in PBS in a final volume of 200 μl with 200 μM ala-pNA as substrate and either test samples or controls. Liberated p-nitroaniline was determined by the change in absorbance at 405 nm following an 18 hr incubation at 37° C.
A general note: An ELISA detects its analyte on a solid surface through an enzyme-linked reagent.

This is an account of results in US6218419A, “Aminoiminoquinone and aminoquinone alkaloid compounds and methods of use” (priority 1999, dated 2001).

Structures are written as SMILES. ≈ marks a conversion by molar mass, not a printed value.

For orientation: IC50 means the midpoint of a concentration-inhibition curve.

T4 sequence (P15144 whole entry): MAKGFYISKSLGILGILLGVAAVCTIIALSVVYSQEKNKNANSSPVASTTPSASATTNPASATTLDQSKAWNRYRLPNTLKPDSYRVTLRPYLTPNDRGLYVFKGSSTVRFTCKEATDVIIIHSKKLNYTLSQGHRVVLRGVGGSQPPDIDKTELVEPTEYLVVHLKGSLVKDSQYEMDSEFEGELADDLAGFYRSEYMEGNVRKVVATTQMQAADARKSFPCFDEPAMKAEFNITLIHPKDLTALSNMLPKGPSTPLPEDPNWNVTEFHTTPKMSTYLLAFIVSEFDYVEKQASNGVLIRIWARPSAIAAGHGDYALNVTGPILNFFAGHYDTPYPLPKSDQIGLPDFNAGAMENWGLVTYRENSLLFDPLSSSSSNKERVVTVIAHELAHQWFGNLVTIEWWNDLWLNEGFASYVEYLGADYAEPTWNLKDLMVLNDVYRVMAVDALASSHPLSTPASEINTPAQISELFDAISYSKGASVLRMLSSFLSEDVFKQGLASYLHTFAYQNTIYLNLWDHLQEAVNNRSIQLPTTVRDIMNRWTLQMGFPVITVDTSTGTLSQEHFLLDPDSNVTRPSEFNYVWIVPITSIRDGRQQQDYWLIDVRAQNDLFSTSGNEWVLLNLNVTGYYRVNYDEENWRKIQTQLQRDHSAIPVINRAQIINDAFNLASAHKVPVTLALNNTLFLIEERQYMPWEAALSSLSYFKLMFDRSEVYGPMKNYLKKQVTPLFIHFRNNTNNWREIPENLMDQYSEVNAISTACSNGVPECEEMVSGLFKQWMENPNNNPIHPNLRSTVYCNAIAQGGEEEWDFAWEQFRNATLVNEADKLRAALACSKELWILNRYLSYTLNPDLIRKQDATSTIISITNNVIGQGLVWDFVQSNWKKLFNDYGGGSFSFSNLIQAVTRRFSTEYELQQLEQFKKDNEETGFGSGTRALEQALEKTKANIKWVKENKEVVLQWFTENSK
Description for Calcineurin: Calcineurin activity was assayed in 96-well microtiter plates in a final volume of 50 μl. Each well contained 50 mM Tris-HCI pH 7.5, 0.5 mM MnCl2, 0.05 mM CaCl2, 1 mM DTT, 50 mM p-nitrophenylphosphate (pNPP), 0.3 μg calcineurin, a five-fold excess of calmodulin, and either test samples or control compounds. Plates were incubated at 30° C. for 60 min. Liberated p-nitrophenol was determined by the change in absorbance at 405 nm.

For the compound `N=C1C(Cl)=C(N)C(=O)c2[nH]cc(C(O)CO)c21` (stereo not drawn) [Secobatzelline A, secobatzelline A], the inhibition at 0.5 µg/mL came to 46% on Calcineurin and 76.2% at CPP32 (0.5 h, pH 7.5, at 0.5 μg/ml, read-out: CPP32, I). Besides, the inhibition at 5 µg/mL was 75% at Calcineurin; 86.5% at CPP32 (0.5 h, pH 7.5, at 5 μg/ml, read-out: CPP32, I); 54.9% at Aminopeptidase N (CD13). Besides, the IC50 at Calcineurin was 2.15 µM; with P388 murine leukemia, 0.06 µg/mL; with unstimulated lymphocytes it was 1.4 µg/mL (≈ 5.48 µM); in assay [2] it was 0.04 µg/mL; in assay [3], 0.68 µg/mL (≈ 2.66 µM). In addition, on CPP32, the “CPP32, IC50” value amounted to 0.02 µg/mL. Besides, the EL-4 adherence result in assay [1] is “inh. adhesion”. The ICE inhibition result against ICE was “not detected”.
As for `NC1=C(Cl)C(=O)c2c(C(O)CO)c[nH]c2C1=O` (stereo not drawn) [Secobatzelline B, secobatzelline B], on Calcineurin, the inhibition at 0.5 µg/mL stood at 22%, the inhibition at 5 µg/mL was 43% and the IC50 was 8.61 µM. Also, the IC50 in the assay with P388 murine leukemia was found to be 1.22 µg/mL. In [2], the half-maximal inhibitory concentration (IC50) is 2.86 µg/mL.
